Like-named read-outs stand apart in the source and are kept apart here. Marks after values point to notes of the source that are not given here.
Key:
[1] = tested on: patients with chronic atrial fibrillation; experiment: PETRO study, phase 2 12-week dose finding study; assay type: in vivo, human
Source text: Primary endpoints were bleeding events and changes in D-dimer. […] Minor bleeding was dose related.

[2] = tested on: cytochrome P-450 drug metabolizing enzymes; experiment: Cytochrome P-450 interaction; assay type: in vitro ADME
[3] = Physical properties of dabigatran etexilate; assay type: physicochemical
[4] = tested on: patients with atrial fibrillation
Protocol: PETRO-Ex began while the PETRO study was ongoing and investigators were initially kept blinded to patient treatment group until PETRO was completed. Unblinding investigators to patient treatment was possible thereafter.
Data were summarized descriptively; no hypothesis was to be tested. Events were analyzed on the basis of the treatment at onset. Incidences were reported as number of patients with events as well as normalized to 100 patient years on the respective treatment.
Patients who completed PETRO on 50 mg b.i.d. were switched to 150 mg q.d. upon entry in the PETRO-Ex study (N=93 patients). […] Patients who were down titrated to 50 mg q.d. based on a glomerular filtration rate ≦50 mL/min during PETRO were excluded from the long-term trial; patients down-titrated in other dose levels remained on the q.d. treatment at that dose.
The former is represented by the number of thromboembolic events per 100 years, the latter by the number of bleeding events per 100 years.

[5] = Clinical pharmacokinetics and pharmacodynamics of dabigatran etexilate; details: in vivo
[6] = 300 mg b.i.d., listed as dabigatran etexilate
[7] = PETRO-Ex, Dabigatran etexilate All doses
[8] = PETRO-Ex, including bleeding and thrombotic events

**Q.** Which results are given for CCCCCCOC(=O)NC(=N)c1ccc(NCc2nc3cc(C(=O)N(CCC(=O)OCC)c4ccccn4)ccc3n2C)cc1 [Dabigatran etexilate, 1-methyl-2-[N-[4-(N-n-hexyloxycarbonylamidino)phenyl]aminomethyl]benzimidazol-5-ylcarboxylic acid-N-(2-pyridyl)-N-(2-ethoxycarbonylethyl)amides]?
**A.** Systemic thromboembolic events, number ([1]; 50 mg b.i.d. group): 2; Major bleeding events ([1]; 300 mg b.i.d. plus ASA groups): 6%; Major bleeding events, number ([1]; 300 mg b.i.d. plus ASA groups): Four; Minor bleeding ([1]; 50, 150 and 300 mg b.i.d.): dose related; Elevated transaminases >3×upper limit of normal (ULN) ([1]; dabigatran etexilate-treated patients, all doses): 0.9%; Elevated transaminases >3×upper limit of normal (ULN), number of patients ([1]; of 432 dabigatran etexilate-treated patients): 4; Metabolism by, induction or inhibition of cytochrome P-450 [2]: not metabolized by and does not induce or inhibit cytochrome P-450 drug metabolizing enzymes; Hygroscopicity [3]: hygroscopic; Solubility in water [3]: sparingly soluble in water; Adverse Events leading to premature discontinuation (rate) ([4]; 50 mg b.i.d.): 21.3 per 100 patient years; Other MACE (rate) ([4]; 50 mg b.i.d.): 8.5 per 100 patient years; Stroke and Systemic Thromboembolism (rate) ([4]; 50 mg b.i.d.): 12.8 per 100 patient years; Stroke and Systemic Thromboembolism (rate) ([4]; 50 mg b.i.d., listed as dabigatran etexilate): more than 12 per 100 patient years; ALT or AST >2xULN (rate) ([4]; 150 mg b.i.d.): 3.1 per 100 patient years; ALT or AST >3xULN (rate) ([4]; 150 mg b.i.d.): 1.9 per 100 patient years; ALT or AST >3xULN and Bili >2xULN within 30 days (rate) ([4]; 150 mg b.i.d.): 0.4 per 100 patient years; ALT or AST >5xULN (rate) ([4]; 150 mg b.i.d.): 1.0 per 100 patient years; Adverse Events leading to premature discontinuation (rate) ([4]; 150 mg b.i.d.): 9.8 per 100 patient years; Fatal major bleeds, number ([4]; 150 mg b.i.d.): 4; MI (rate) ([4]; 150 mg b.i.d.): 0.9 per 100 patient years; Major Bleeds (rate) ([4]; 150 mg b.i.d.): 4.2 per 100 patient years; Major Bleeds, of these with aspirin (rate) ([4]; 150 mg b.i.d.): 8.7 per 100 patient years; Major Bleeds, of these without aspirin (rate) ([4]; 150 mg b.i.d.): 3.2 per 100 patient years; Major bleeding events ([4]; 150 mg b.i.d.): 4.2 % per year; Other MACE (rate) ([4]; 150 mg b.i.d.): 1.0 per 100 patient years; Stroke and Systemic Thromboembolism (rate) ([4]; 150 mg b.i.d.): 1.0 per 100 patient years; TIA (rate) ([4]; 150 mg b.i.d.): 0.1 per 100 patient years; Thromboembolic events and stroke rate ([4]; 150 mg b.i.d.): 1 % per year; ALT or AST >2xULN (rate) ([4]; 150 mg q.d.): 3.4 per 100 patient years; Adverse Events leading to premature discontinuation (rate) ([4]; 150 mg q.d.): 13.7 per 100 patient years; Major Bleeds (rate) ([4]; 150 mg q.d.): 5.1 per 100 patient years; Major Bleeds, of these without aspirin (rate) ([4]; 150 mg q.d.): 6.5 per 100 patient years; Stroke and Systemic Thromboembolism (rate) ([4]; 150 mg q.d.): 5.1 per 100 patient years; Stroke and Systemic Thromboembolism (rate) ([4]; 150 mg q.d., listed as dabigatran etexilate): about 5 per 100 patient years; ALT or AST >2xULN (rate) ([4]; 300 mg b.i.d.): 4.9 per 100 patient years; ALT or AST >3xULN (rate) ([4]; 300 mg b.i.d.): 2.4 per 100 patient years; ALT or AST >5xULN (rate) ([4]; 300 mg b.i.d.): 1.2 per 100 patient years; Adverse Events leading to premature discontinuation (rate) ([4]; 300 mg b.i.d.): 25.6 per 100 patient years; Major Bleeds (rate) ([4]; 300 mg b.i.d.): 12.2 per 100 patient years; Major Bleeds, of these with aspirin (rate) ([4]; 300 mg b.i.d.): 32.7 per 100 patient years; Major Bleeds, of these without aspirin (rate) ([4]; 300 mg b.i.d.): 6.3 per 100 patient years; Major bleeding events ([4]; 300 mg b.i.d.): 12.2 % per year; Other MACE (rate) ([4]; 300 mg b.i.d.): 1.2 per 100 patient years; Stroke and Systemic Thromboembolism (rate) ([4]; 300 mg b.i.d.): 1.2 per 100 patient years; Thromboembolic events and stroke rate ([4]; 300 mg b.i.d.): 1.2 % per year; Major Bleeds (rate) [4, 6]: more than 12 per 100 patient years; Stroke and Systemic Thromboembolism (rate) [4, 6]: about 1 per 100 patient years; ALT or AST >2xULN (rate) ([4]; 300 mg q.d.): 1.5 per 100 patient years; ALT or AST >3xULN (rate) ([4]; 300 mg q.d.): 1.5 per 100 patient years; ALT or AST >3xULN and Bili >2xULN within 30 days (rate) ([4]; 300 mg q.d.): 0.5 per 100 patient years; ALT or AST >5xULN (rate) ([4]; 300 mg q.d.): 1.5 per 100 patient years; Adverse Events leading to premature discontinuation (rate) ([4]; 300 mg q.d.): 9.6 per 100 patient years; Fatal major bleeds, number ([4]; 300 mg q.d.): 1; MI (rate) ([4]; 300 mg q.d.): 0.5 per 100 patient years; Major Bleeds (rate) ([4]; 300 mg q.d.): 2.5 per 100 patient years; Major Bleeds, of these with aspirin (rate) ([4]; 300 mg q.d.): 3.6 per 100 patient years; Major Bleeds, of these without aspirin (rate) ([4]; 300 mg q.d.): 2.1 per 100 patient years; Major bleeding events ([4]; 300 mg q.d.): 2.5 % per year; Other MACE (rate) ([4]; 300 mg q.d.): 0.5 per 100 patient years; Stroke and Systemic Thromboembolism (rate) ([4]; 300 mg q.d.): 2.5 per 100 patient years; Stroke and Systemic Thromboembolism (rate) ([4]; 300 mg q.d., listed as dabigatran etexilate): more than 2 per 100 patient years; Tolerability ([4]; 300 mg twice daily): not tolerable; Serious adverse events: cardiac disorders ([4]; PETRO-Ex): 22%; Serious adverse events: cardiac disorders, pts ([4]; PETRO-Ex): 80; Serious adverse events: gastrointestinal disorders ([4]; PETRO-Ex): 7.8%; Serious adverse events: gastrointestinal disorders, pts ([4]; PETRO-Ex): 28; Serious adverse events: infections ([4]; PETRO-Ex): 9.4%; Serious adverse events: infections, pts ([4]; PETRO-Ex): 34; Serious adverse events: nervous system disorders ([4]; PETRO-Ex): 9.1%; Serious adverse events: nervous system disorders, pts ([4]; PETRO-Ex): 33; Stroke and systemic embolism (per 100 patient years) ([4]; PETRO-Ex, Dabigatran etexilate 150 mg b.i.d.): 1.0%; Major bleeding events (per 100 patient years) ([4]; PETRO-Ex, Dabigatran etexilate 150 mg b.i.d., without concomitant aspirin): 3.2%*; LFT abnormalities >3 xULN (per 100 patient years) [4, 7]: 1.7%; Myocardial Infarction [4, 7]: 0.7%; Serious adverse events [4, 8]: 51%; Serious adverse events, patients [4, 8]: 184; ALT or AST >2xULN (rate) ([4]; Total): 2.9 per 100 patient years; ALT or AST >3xULN (rate) ([4]; Total): 1.7 per 100 patient years; ALT or AST >3xULN and Bili >2xULN within 30 days (rate) ([4]; Total): 0.4 per 100 patient years; ALT or AST >5xULN (rate) ([4]; Total): 1.1 per 100 patient years; Adverse Events leading to premature discontinuation (rate) ([4]; Total): 11.5 per 100 patient years; MI (rate) ([4]; Total): 0.7 per 100 patient years; Major Bleeds (rate) ([4]; Total): 4.2 per 100 patient years; Major Bleeds, of these with aspirin (rate) ([4]; Total): 8.5 per 100 patient years; Major Bleeds, of these without aspirin (rate) ([4]; Total): 3.2 per 100 patient years; Other MACE (rate) ([4]; Total): 1.1 per 100 patient years; Stroke and Systemic Thromboembolism (rate) ([4]; Total): 1.9 per 100 patient years; TIA (rate) ([4]; Total): 0.1 per 100 patient years; Concomitant bilirubin elevation >2×ULN within 30 days of transaminase elevations >3×ULN ([4]; all doses): 0.4 % per year; Elevated liver transaminases, AST or ALT >3×ULN ([4]; all doses): 1.7 % per year; Fatal intracranial bleeds, number ([4]; all doses): Three; Fatal major bleeds, number ([4]; all doses): Five; Transaminases (AST or ALT) >5×ULN ([4]; all doses): 1.1 % per year; Major bleed rate ([4]; doses ≦150 mg/day (150 mg q.d. combined with 50 mg b.i.d.)): 3.7 % per year; Bleeding event rate ([4]; on concomitant aspirin): 8.5 % per year; Stroke or systemic thromboembolic event rates ([4]; the two highest doses): approximately 1 % per year; Bleeding event rate ([4]; without concomitant aspirin): 3.2 % per year; Annualized thromboembolic event rate ([4]; ≦150 mg/day): over 5.0 per 100 patient years; Food interactions [5]: no food interactions

Reference: US20110251160A1 (priority 2008, published 2011)
